{"source": "patent US20230218631A1", "about": "(priority 2020, published 2023)", "key": {"[1]": {"system": "wild-type mice (both male and female)", "assay": "Drinking in the Dark binge-like ethanol drinking", "type": "in vivo", "conditions": "2 mg/kg i.p. for 10 days, 30 min before session, 20% ethanol, both sexes", "experimental": "Since UNC0642 blocked stress-potentiated ethanol drinking in mice, as show above, we next tested whether UNC0642 could alter binge-like ethanol drinking in both sexes. Wild-type mice (both male and female) were given ethanol for 1 week in a “Drinking in the Dark” paradigm (Rhodes et al., 2005), a well-established alcohol model that is similar to binge-drinking in humans. Both male and female mice were given a single bottle of 20% ethanol in their home cage for 2 hours per day for 3 days. No alternative bottle of water was given in this experiment. On the 4th day, the access to the bottle was extended to 4 hours to model a binge-drinking session. After the first week, mice were split into even groups and were injected with UNC0642 (2 mg/kg, i.p.) or vehicle for 10 days 30 minutes before each drinking session began. Mice were tested for changes in baseline drinking and binge drinking for 2 weeks. […] Our data detected the well-documented sex differences in alcohol intake in these assays, but there was no significant interaction between sex and UNC0642 treatment."}, "[2]": {"system": "mice", "assay": "Sucrose pellet self-administration, extinction and cue-induced reinstatement", "type": "in vivo", "experimental": "Mice were first injected with UNC0642 (2 mg/kg, i.p) or vehicle-alone once daily for 10 days. Thirty minutes following the 10th dose, they began the first 2-hour sucrose self-administration session. The UNC0642 and vehicle injections occurred 30 minutes before the start of each sucrose self-administration, extinction, and reinstatement session. All self-administration experiments occurred in standard operant chambers with two nose-poke detectors, a house light, and a cue light and tone generator (Med Associates, Fairfield, Vt.). All sucrose-paired nose-pokes, including those during the timeout, were recorded and are reported as “paired nose pokes”. No fasting occurred during any stage of the experiment. During the 2-hour sessions, mice were trained to nose-poke in the paired side on a fixed-ratio 1 (FR1) schedule with 15-second timeout period after delivery of a single sucrose pellet. Concurrent with the pellet delivery, a cue tone and cue light (which is located immediately above the paired nose-poke port) are activated. All mice had ten self-administration sessions. […] Finally, we examined the number of nose-pokes on the paired side during timeout periods. Similar to the paired nose-poke data above, there was a slight effect on the interaction between UNC0642 treatment and sex. […] Overall, UNC0642 had no effect on sucrose-taking behavior as all groups increased their responding for sucrose pellets over time, and they learned and remembered the relationship between the reinforced (sucrose-paired) and the non-reinforced (unpaired) ports.\nSucrose-seeking behaviors were next tested in these same mice. Following a 7-day period in the home cage with ad libitum food and water, all mice began extinction training for 6 consecutive days (a model of context-associated sucrose-seeking behavior). […] Finally, light/tone cue-induced reinstatement behavior (a model of discreet cue-induced sucrose-seeking behavior) was tested one day after the 6th extinction session in a single 2-hour session. Mice were allowed to nose-poke for light and tone cues without receiving pellets. […] We also found UNC0642 had no effect on UNC0642 on the number of unpaired nose pokes during cue induced reinstatement of sucrose pellet self-administration (FIG. 9J; Three-Way ANOVA, Day: F1,26=6.739, p=0.0153, Sex: F1,26=6.739, p=0.0153, no other significant effects) and UNC0642 had no effect on the discrimination ratio between paired and unpaired nose pokes during cue-induced reinstatement of sucrose pellet self-administration (FIG. 9K; Three-Way ANOVA, Sex: F1,26=5.880, p=0.0226, no other significant effects)."}}}
{"smiles": "COc1cc2c(NC3CCN(C(C)C)CC3)nc(N3CCC(F)(F)CC3)nc2cc1OCCCN1CCCC1", "note": "[UNC0642, 2-(4,4-Difluoropiperidin-1-yl)-6-methoxy-N-[1-(propan-2-yl)piperidin-4-yl]-7-[3-(pyrrolidin-1-yl)propoxy]quinazolin-4-amine]", "values": [{"measurement": "single-bottle alcohol drinking, baseline 2 hour sessions", "setting": "[1]; FIG. 8A", "value": "no effect"}, {"measurement": "binge alcohol drinking, 4-hour binge sessions", "setting": "[1]; FIG. 8B", "value": "no effect"}, {"measurement": "number of sucrose pellets earned during sucrose pellet self-administration", "setting": "[2]; 2 mg/kg i.p. once daily, 30 min before session, FR1, FIG. 9A", "value": "no effect"}, {"measurement": "number of paired nose pokes during extinction learning following sucrose pellet self-administration", "setting": "[2]; 2 mg/kg i.p., 6 extinction days, FIG. 9F", "value": "no effect"}, {"measurement": "number of unpaired nose pokes during sucrose pellet self-administration", "setting": "[2]; 2 mg/kg i.p., FIG. 9C", "value": "no effect"}, {"measurement": "discrimination ratio between paired and unpaired nose pokes during sucrose pellet self-administration", "setting": "[2]; 2 mg/kg i.p., FIG. 9D", "value": "no effect"}, {"measurement": "unpaired nose-pokes during extinction learning following sucrose pellet self-administration", "setting": "[2]; 2 mg/kg i.p., FIG. 9G", "value": "no effect"}, {"measurement": "discrimination ratio between paired and unpaired nose pokes during extinction learning", "setting": "[2]; 2 mg/kg i.p., FIG. 9H", "value": "no effect"}, {"measurement": "number of paired nose pokes during cue induced reinstatement of sucrose pellet self-administration", "setting": "[2]; 2 mg/kg i.p., FIG. 9I", "value": "no effect"}, {"measurement": "number of unpaired nose pokes during cue induced reinstatement of sucrose pellet self-administration", "setting": "[2]; 2 mg/kg i.p., FIG. 9J", "value": "no effect"}, {"measurement": "discrimination ratio between paired and unpaired nose pokes during cue-induced reinstatement", "setting": "[2]; 2 mg/kg i.p., FIG. 9K", "value": "no effect"}, {"measurement": "paired nose-pokes during self-administration, female mice", "setting": "[2]; 2 mg/kg i.p., female mice in UNC0642 group, Day X Treatment interaction, FIG. 9B", "value": "slight increase"}, {"measurement": "timeout responding, female mice", "setting": "[2]; 2 mg/kg i.p., female mice in UNC0642 group, FIG. 9E", "value": "slightly higher"}, {"measurement": "number of paired nose pokes during sucrose pellet self-administration", "setting": "[2]; 2 mg/kg i.p., overall, FIG. 9B", "value": "no overall effect"}, {"measurement": "number of timeout responses on the paired nose port during sucrose pellet self-administration", "setting": "[2]; 2 mg/kg i.p., overall, FIG. 9E", "value": "no overall effect"}]}
